Test results from publication PMC6305444, “Advancement of the 5-Amino-1-(Carbamoylmethyl)-1H-1,2,3-Triazole-4-Carboxamide Scaffold to Disarm the Bacterial SOS Response” (Frontiers in Microbiology, 2018).

Assays:
[1] = Cytotoxicity testing with HG2 cells; assay type: cell-based
[2] = Solubility (inferred from titration curves in assay buffer; DMSO stocks); assay type: physicochemical; details: FlAsH-LexA cleavage assay buffer, aqueous buffer; suggested by normal titration curves in FlAsH-LexA assay buffer; read-out: aqueous solubility maintained up to
Description: Representative titrations for the compounds can be found in the Supplementary Figure 1.

[3] = biological target: T1, full length LexA from P. aeruginosa (RecA*-mediated cleavage) (Pseudomonas aeruginosa, UniProt P37452); assay: Orthogonal 32P-LexA cleavage assay, full-length P. aeruginosa LexA; assay type: biochemical
T1 construct: examining RecA^∗-mediated cleavage of full length LexA from P. aeruginosa; made in house
T1 sequence (P37452 whole entry): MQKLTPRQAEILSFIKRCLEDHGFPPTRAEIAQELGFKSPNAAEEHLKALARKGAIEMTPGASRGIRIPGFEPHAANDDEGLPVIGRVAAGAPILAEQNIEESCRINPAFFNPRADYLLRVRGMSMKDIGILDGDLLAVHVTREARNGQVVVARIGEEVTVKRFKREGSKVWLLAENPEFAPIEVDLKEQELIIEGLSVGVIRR
Experimental: (§1) Full-length E. coli and P. aeruginosa LexA were engineered with a RRXS phosphorylation site on the N-terminus of the full-length protein, allowing for ^32P labeling by protein kinase A to produce ^32P-LexA, as described previously ([Mo et al., 2018]). Reactions contained 100 nM ^32P-LexA, 200 nM RecA and 10 μM ATPγS and the buffer conditions were identical to those in the HTS assay. Compounds were added in DMSO and the final concentration was 2%. Reactions were incubated for 30 min at room temperature after which 2 × Laemmli buffer was added to stop the assay. The stopped reactions were subjected to 15% SDS-PAGE and the gels were visualized via phosphorimaging on a Typhoon imager (GE Healthcare Bio-Sciences, Marlborough, MA, United States). The intact and cleaved bands were quantified using Quantity One (Bio-Rad, Hercules, CA, United States) and the fraction inhibited was calculated. […] Plots of fraction inhibited against compound concentration were fitted to Equation 1.

[4] = biological target: T2, E. coli FlAsH-LexA (RecA-promoted LexA cleavage) (Escherichia coli, UniProt P0A7C2); assay: biochemical
T2 sequence (P0A7G6 2-353): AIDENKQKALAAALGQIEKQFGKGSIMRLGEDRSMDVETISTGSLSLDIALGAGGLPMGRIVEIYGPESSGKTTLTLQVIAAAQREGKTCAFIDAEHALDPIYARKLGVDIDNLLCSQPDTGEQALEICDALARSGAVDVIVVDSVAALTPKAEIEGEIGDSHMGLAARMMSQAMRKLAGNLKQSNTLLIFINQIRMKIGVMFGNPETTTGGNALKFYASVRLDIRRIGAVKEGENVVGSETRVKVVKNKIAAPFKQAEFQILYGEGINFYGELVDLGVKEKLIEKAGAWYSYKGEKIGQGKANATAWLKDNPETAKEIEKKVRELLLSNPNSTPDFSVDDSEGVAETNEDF
T2 sequence (P0A7C2 75-202): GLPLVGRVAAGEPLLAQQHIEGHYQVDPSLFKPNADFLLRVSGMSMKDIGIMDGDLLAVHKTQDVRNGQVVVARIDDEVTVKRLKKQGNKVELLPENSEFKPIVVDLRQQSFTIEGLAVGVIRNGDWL
Experimental: (§6) IC50 values were routinely determined using the E. coli FlAsH-LexA cleavage assay previously used to perform HTS ([Mo et al., 2018]). In this assay RecA-promoted LexA cleavage is monitored using fluorescence polarization. […] Reactions were performed in 384-well plates and components were added as 10 μL additions of ATPγS, ssDNA and RecA, in buffer and 10 μL of E. coli FlAsH-LexA in buffer using a Janus liquid handler (Perkin-Elmer). Compound was added as a DMSO solution using a pin tool, and the final concentration of DMSO in the reaction was 1.2%. Once the reaction components were combined, reactions were centrifuged for 1 min at 500 rpm and incubated for 30 min at room temperature. Reactions were quenched with a 10 μL addition of 50 mM EDTA and plates were read on a Tecan Infinite F200 Pro plate reader (Tecan US, Inc., Morrisville, NC, United States). […] On each plate 32 positive (-RecA) and 32 negative controls (+RecA) in which DMSO without compound was added were used to define the range of mP and calculate the fraction inhibited.
(§7) IC50 values were estimated by non-linear least squares fitting to the data using Equation 1.
(§8) where FI = Fraction inhibited, [I] = Concentration of compound and n = Hill coefficient. Fitting was performed using Igor Pro (WaveMetrics Inc., Lake Oswego, OR, United States).

[5] = biological target: T2, E. coli FlAsH-LexA (RecA-promoted LexA cleavage); details: for rank order of activities, ortho mono-substitution on area A phenyl: FlAsH-LexA cleavage assay; for activity in FlAsH-LexA cleavage assay (in words): highest concentration 111 μM
Experimental: as §6, §7, §8

[6] = biological target: T3, full-length E. coli LexA (RecA*-induced cleavage) (Escherichia coli, UniProt P0A7C2); assay: Orthogonal 32P-LexA cleavage assay, full-length E. coli LexA; assay type: biochemical
T3 construct: Full-length E. coli and P. aeruginosa LexA were engineered with a RRXS phosphorylation site on the N-terminus of the full-length protein; made in house
T3 sequence (P0A7C2 whole entry): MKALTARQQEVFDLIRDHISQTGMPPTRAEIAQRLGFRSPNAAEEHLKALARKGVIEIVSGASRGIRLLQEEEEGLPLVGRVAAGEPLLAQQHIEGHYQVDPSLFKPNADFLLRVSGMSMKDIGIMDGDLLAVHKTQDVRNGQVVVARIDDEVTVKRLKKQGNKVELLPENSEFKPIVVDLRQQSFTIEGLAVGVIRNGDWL
Experimental: as §1

[7] = biological target: T4, full length E. coli LexA (Escherichia coli, UniProt P0A7C2); assay: Thermal shift assay of LexA; assay type: binding; details: LexA 5 µM, compound 50 µM; LexA alone Tm 57.4 ± 0.4
T4 construct: a fluorescence-independent assay using a full-length version of E. coli LexA was employed; made in house
T4 sequence (P0A7C2 whole entry): as above
Experimental: (§2) Supplementary Figure 2. Binding of 14 to LexA alone. (a) Inhibition of the auto-proteolysis of 32P-labelleled full length E. coli LexA by 14 in the absence of RecA. All data represent the mean of two independent measurements and the error bars represent the range of error. The error of the IC50 value is the standard deviation of the fit of equation 1 to the data. (b) Thermal shift observed upon binding of 14 to full length E. coli LexA. The concentrations of LexA and 14 were 5 µM and 50 µM, respectively. The errors for the Tm values are the standard deviations of the fits of equation S1 to the data.
(§3) Cy5-labeled operator DNA Bound DNA
(§4) Supplementary Figure 3. LexA DNA binding activity is not impacted by 14. Varying concentrations of […]
(§5) (SOS box). The titrations were performed in the presence of DMSO or 40 μM of 14. The samples were separated on a non-denaturing polyacrylamide gel (at right) and the bound fraction calculated. […]

[8] = biological target: T5, LexA-S119A / Cy5-labeled SOS operator DNA (Escherichia coli, UniProt P0A7C2, S119A); assay: Electrophoretic mobility shift assay (EMSA), LexA binding to SOS operator DNA; details: compound vs DMSO
T5 construct: made in house
T5 sequence (P0A7C2 whole entry S119A): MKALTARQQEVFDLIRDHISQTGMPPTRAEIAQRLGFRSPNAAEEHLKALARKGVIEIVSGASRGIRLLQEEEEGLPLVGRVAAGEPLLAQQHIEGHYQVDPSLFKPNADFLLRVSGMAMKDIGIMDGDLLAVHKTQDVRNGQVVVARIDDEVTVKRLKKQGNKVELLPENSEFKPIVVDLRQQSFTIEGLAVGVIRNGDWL
Experimental: Increasing concentrations (0–1 μM) of LexA-S119A were mixed with 10 nM SOS operator DNA labeled with Cy5 in EMSA running buffer (70 mM Tris-HCl pH 7.5, 10 mM MgCl2, 150 mM NaCl, 5 mM DTT, 0.1 mg/ml BSA, 10 ng/μL ssDNA, 5% glycerol, 0.04% bromophenol blue) in the presence of 50 μM of compound (or DMSO carrier). After incubation at room temperature for 30 min, 20 μL of each reaction was subjected to 6% native PAGE. Gels were visualized on a Typhoon Imager using default fluorescence filter settings for Cy5. Gel bands were quantified using ImageJ (NIH, Bethesda, MD, United States) to determine the fraction of bound DNA at each LexA concentration. Data were fitted to a variable-slope sigmoidal dose-response curve.

[9] = test system: ΔtolC E. coli; assay: Frequency of resistance (rifampin-resistance mutation rate); assay type: cell-based
Experimental: A starter culture of ΔtolC E. coli was cultured overnight at 37°C with shaking in LB broth. The next day the culture was diluted 3 × 10^7-fold in to LB broth. The dilution was used to produce four sets of twelve cultures, each containing 1 mL. To one set was added 10 μL of deionized H2O plus 10 μL of DMSO, to the second set was added 10 μL of 125 ng/mL ciprofloxacin in deionized H2O plus 10 μL of DMSO, to the third set was added 10 μL of deionized H2O plus 10 μL of a 10 mM solution of 14 in DMSO and to the fourth set was added 10 μL of 125 ng/mL ciprofloxacin in deionized H2O plus 10 μL of 14 in DMSO.
The 48 cultures were incubated at 37°C with shaking for 48 h. To determine the population size, spot plating was performed starting with 1 μL of the cultures diluted 10^5-fold. A 100 μL aliquot of each 10^5-fold dilution was transferred to a 96-well plate and serially diluted (10-fold dilutions) into LB broth. The dilutions (5 μL) were spotted on LB agar plates and the plates were incubated overnight at 37°C. To determine the rifampin resistant population, 999 μL of each 1 mL culture was centrifuged at 6000 rpm for 10 min to remove the cells from solution and the cells were suspended in 100 μL of autoclaved 0.15 M NaCl. The 100 μL solutions were plated on the LB plates containing 100 μg/mL rifampin and incubated for 2 days at 37°C. Following counting of the colonies the program bz-rates ([Gillet-Markowska et al., 2015]) was used to estimate mutation rates.

[10] = test system: recA promoter GFP reporter (SOS response); assay: Cell-based SOS reporter assay (GFP under recA promoter, ciprofloxacin-induced); parameters: species or system E. coli MG1655 ΔsulA ΔtolC; details: Escherichia coli, 2 h, read-out: IC50, GFP assay
Experimental: An E. coli MG1655 strain lacking sulA (ΔsulA) and the tolC transporter (ΔtolC) ([Mo et al., 2016]) was transformed with a reporter plasmid in which gfp expression was under the control of the recA promoter (pMS201 pRecA GFP) ([Zaslaver et al., 2006]). To perform assays overnight, cultures of the reporter strain were diluted 100-fold in M9 minimal media and grown at 37°C with agitation to an OD595 of ∼0.6. For each reaction sample 100 μL of culture were mixed with 100 μL of M9 minimal media containing ciprofloxacin (256 ng/mL). Pre-diluted compounds were added (5 μL) in DMSO and cultures were incubated at 37°C with agitation for 2 h after which the cells were fixed by adding 200 μL of phosphate buffered saline, pH 7.4 containing 1% paraformaldehyde. After 1 h of fixing, the cells were spun down at 4,000 rpm and re-suspended in phosphate buffered saline, pH 7.4. Fixed cells were analyzed using flow cytometry (BD FACSCalibur, Ex/Em: 488 nm/530 nm) and the mean fluorescence of 20,000 cells in each condition was recorded.

[11] = biological target: T4, full length E. coli LexA; assay: Auto-proteolysis of 32P-labelled full length E. coli LexA in the absence of RecA; assay type: biochemical
Experimental: as §2, §3, §4, §5

[12] = test system: ΔtolC E. coli; assay: MIC of ciprofloxacin; assay type: cell-based; details: Escherichia coli

CCOc1ccc(NC(=O)Cn2nnc(C(=O)Nc3ccc(C)c(C)c3)c2N)cc1 [Compound 1]
CC50 [1]: 277 µM
solubility [2]: ≥ 111 µM
IC50 [3]: 130 ± 28 µM
IC50 [4]: 32 ± 6 µM

Cc1ccc(NC(=O)c2nnn(CC(=O)Nc3ccccc3)c2N)cc1C [Compound 2]
rank order of activities, ortho mono-substitution on area A phenyl [5]: Me (5) > Et (22) > OMe (23) > OEt (24) = H (2)
activity in FlAsH-LexA cleavage assay (in words) [5]: loss of activity
IC50 [4]: > 100 µM

Cc1ccc(NC(=O)c2nnn(CC(=O)NC3CCCCC3)c2N)cc1C [Compound 3]
activity in FlAsH-LexA cleavage assay (in words) [5]: returned activity
solubility [2]: ≥ 111 µM
IC50 [4]: 44 ± 4 µM

Cc1ccc(NC(=O)c2nnn(CC(=O)NC3CCCCCC3)c2N)cc1C [Compound 4]
activity in FlAsH-LexA cleavage assay (in words) [5]: returned activity
solubility [2]: ≥ 111 µM
IC50 [4]: 22 ± 3 µM

Cc1ccc(NC(=O)c2nnn(CC(=O)Nc3ccccc3C)c2N)cc1C [Compound 5]
rank order of activities, ortho mono-substitution on area A phenyl [5]: Me (5) > Et (22) > OMe (23) > OEt (24) = H (2)
solubility [2]: ≥ 111 µM
IC50 [4]: 17 ± 2 µM

Cc1cccc(NC(=O)Cn2nnc(C(=O)Nc3ccc(C)c(C)c3)c2N)c1 [Compound 6]
activity in FlAsH-LexA cleavage assay (in words) [5]: not tolerated
IC50 [4]: > 100 µM

Cc1ccc(NC(=O)Cn2nnc(C(=O)Nc3ccc(C)c(C)c3)c2N)cc1 [Compound 7]
solubility [2]: ≥ 111 µM
IC50 [4]: 18 ± 1 µM

Cc1ccc(NC(=O)Cn2nnc(C(=O)Nc3ccc(C)c(C)c3)c2N)c(C)c1 [Compound 8]
activity in FlAsH-LexA cleavage assay (in words) [5]: tolerated but not significantly superior to ortho-substitution alone
solubility [2]: ≥ 111 µM
IC50 [4]: 15 ± 2 µM

CCOc1ccc(NC(=O)Cn2nnc(C(=O)Nc3ccccc3C)c2N)cc1 [Compound 9]
activity in FlAsH-LexA cleavage assay (in words) [5]: not tolerated
IC50 [4]: > 100 µM

CCOc1ccc(NC(=O)Cn2nnc(C(=O)Nc3cccc(C)c3)c2N)cc1 [Compound 10]
activity in FlAsH-LexA cleavage assay (in words) [5]: allowed
solubility [2]: ≥ 111 µM
IC50 [4]: 33 ± 4 µM

CCOc1ccc(NC(=O)Cn2nnc(C(=O)Nc3ccc(C)cc3)c2N)cc1 [Compound 11]
activity in FlAsH-LexA cleavage assay (in words) [5]: allowed
solubility [2]: ≥ 111 µM
IC50 [4]: 15 ± 2 µM

CCOC(=O)c1ccc(NC(=O)c2nnn(CC(=O)Nc3ccc(OCC)cc3)c2N)cc1 [Compound 12]
activity in FlAsH-LexA cleavage assay (in words) [5]: tolerated
solubility [2]: ≥ 111 µM
IC50 [4]: 19 ± 3 µM

CCOc1ccc(NC(=O)Cn2nnc(C(=O)Nc3cccnc3)c2N)cc1 [Compound 13]
activity in FlAsH-LexA cleavage assay (in words) [5]: tolerated
solubility [2]: ≥ 111 µM
IC50 [4]: 40 ± 3 µM

CCOc1ccc(NC(=O)Cn2nnc(C(=O)Nc3ccccc3)c2N)cc1 [Compound 14, 5-amino-1-{2-[(4-ethoxyphenyl)amino]-2-oxoethyl}-N-phenyl-1H-1,2,3-triazole-4-carboxamide]
CC50 [1]: > 500 µM
IC50 [6]: 10 ± 1 µM
Tm [7]: 67.0 ± 0.1 °C
solubility [2]: ≥ 111 µM
effect on LexA DNA binding (EMSA) [8]: not impacted
IC50 [3]: 5.9 ± 0.4 µM
suppression of ciprofloxacin-induced appearance of resistance to rifampicin ([9]; 100 μM compound): effective in reducing the appearance of resistance to rifampicin
decrease in per generation mutation rate relative to ciprofloxacin alone ([9]; 100 μM compound + ciprofloxacin 1.25 ng/mL, rifampin resistance, 48 h): approximately threefold
mutation rate, compound alone ([9]; 100 μM compound, no ciprofloxacin): comparable to DMSO alone controls
IC50 [4]: 9 ± 1 µM
IC50 [10]: 32 ± 2 µM
IC50 [11]: 15.2 ± 2.5 µM

O=C(O)c1cn(C2CC2)c2cc(N3CCNCC3)c(F)cc2c1=O [ciprofloxacin, reference compound]
MIC [12]: 5 ng/mL
mutation rate, ciprofloxacin alone ([9]; sub-MIC concentration 1.25 ng/mL): produced an induction of mutagenesis
